The text below walks through data of ChEMBL document CHEMBL1136021, “Design, synthesis, and SAR of substituted acrylamides as factor Xa inhibitors” (Bioorg Med Chem Lett, 2002).

In assay [1] the target is T1, Coagulation factor X (Homo sapiens, UniProt P00742). Put plainly: Inhibitory activity against factor Xa.
A further assay addresses Serine protease 1 (Homo sapiens, UniProt P07477). Put plainly: Inhibitory activity against trypsin was determined.
In a further assay the target is Prothrombin (Homo sapiens, UniProt P00734). Put plainly: Inhibitory activity against Factor IIa (serine protease) was determined.
In assay [2] the target is T1, Coagulation factor X. As to the kind of experiment: Inhibitory activity against factor Xa was determined.
The target in assay [3] is T1, Coagulation factor X. Put plainly: Inhibitory activity against Coagulation factor Xa (serine protease) was determined.
Assay [4] deals with T1, Coagulation factor X. As to the kind of experiment: Inhibitory activity against factor Xa, activity expressed as Ki nM.

T1 sequence (P00742 41-179 limits assumed): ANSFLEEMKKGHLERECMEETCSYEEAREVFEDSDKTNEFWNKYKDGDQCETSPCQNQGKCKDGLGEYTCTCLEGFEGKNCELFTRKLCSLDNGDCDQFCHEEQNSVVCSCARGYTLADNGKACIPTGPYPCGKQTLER
T1 sequence (P00742 235-488 limits assumed): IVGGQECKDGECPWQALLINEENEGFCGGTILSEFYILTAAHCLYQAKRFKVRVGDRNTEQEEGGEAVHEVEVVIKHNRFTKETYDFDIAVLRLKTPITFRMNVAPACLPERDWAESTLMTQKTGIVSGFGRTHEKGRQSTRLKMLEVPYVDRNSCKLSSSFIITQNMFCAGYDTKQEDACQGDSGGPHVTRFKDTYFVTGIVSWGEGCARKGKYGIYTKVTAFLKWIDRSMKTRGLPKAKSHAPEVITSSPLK
Sequence of Serine protease 1 (P07477 whole entry): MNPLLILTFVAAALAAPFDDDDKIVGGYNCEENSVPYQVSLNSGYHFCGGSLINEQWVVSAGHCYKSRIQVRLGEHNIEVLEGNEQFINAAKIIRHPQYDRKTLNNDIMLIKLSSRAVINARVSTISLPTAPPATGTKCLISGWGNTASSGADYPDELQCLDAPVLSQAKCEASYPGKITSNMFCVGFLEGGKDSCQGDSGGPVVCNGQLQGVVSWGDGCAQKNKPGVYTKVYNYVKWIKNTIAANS

Take `C/C(=C(\F)C(=O)Nc1ccc(-c2ccccc2S(N)(=O)=O)cc1F)c1cc(C(=N)N)ccc1N`: half-maximal inhibition at Coagulation factor X [1] (IC50) was put at 2.6 nM. In the case of `N=C(N)c1cccc(C(CO)=C(F)C(=O)Nc2ccc(-c3ccccc3S(N)(=O)=O)cc2)c1`, inhibition against Coagulation factor X [1] was half-maximal at 3.7 nM (IC50). Turning to `CC(=C(CC(N)=O)C(=O)Nc1ccc(-c2ccccc2S(N)(=O)=O)cc1)c1cccc(C(=N)N)c1`, the IC50 (usually the point on the concentration scale where inhibition reaches its midpoint) on Coagulation factor X [1] was 99 nM. As for `C/C(=C(\F)C(=O)Nc1ccc(-c2ccccc2S(N)(=O)=O)cc1F)c1cccc(C(=N)N)c1`, the IC50 on Serine protease 1 amounted to 194 nM; on Prothrombin it was 2200 nM; on Coagulation factor X [1] it was 0.2 nM. Turning to `CC(=CC(=O)Nc1ccc(-c2ccccc2S(N)(=O)=O)cc1)c1cccc(C(=N)N)c1`, half-maximal inhibition on Coagulation factor X [1] (IC50) was put at 4 nM.

Regarding `CC(=C(F)C(=O)Nc1ccc(-c2ccccc2S(N)(=O)=O)cc1)c1cccc(C(=N)N)c1`, the values for the IC50 against Serine protease 1, against Prothrombin and at Coagulation factor X [1] were 259 nM, 3190 nM and 1 nM, respectively. As for `COC(=O)C(=Cc1cccc(C(=N)N)c1)C(=O)Nc1ccc(-c2ccccc2S(N)(=O)=O)cc1`, it took 759 nM to reach half-maximal inhibition against Coagulation factor X [2] (IC50). At Coagulation factor X [3], `N=C(N)c1cccc(C=CC(=O)Nc2ccc(-c3ccccc3S(N)(=O)=O)cc2)c1` [listing 1 of 2 here] yielded an IC50 of 3120 nM.

In turn, `COCC(=CC(=O)Nc1ccc(-c2ccccc2S(N)(=O)=O)cc1)c1cccc(C(=N)N)c1` gave an IC50 on Coagulation factor X [1] of 7 nM. Regarding `CS(=O)(=O)CC(=C(F)C(=O)Nc1ccc(-c2ccccc2S(N)(=O)=O)cc1)c1cccc(C(=N)N)c1`, the IC50 on Coagulation factor X [1] was 10 nM. Molecule `CC(=Cc1cccc(C(=N)N)c1)C(=O)Nc1ccc(-c2ccccc2S(N)(=O)=O)cc1` returned an IC50 against Coagulation factor X [1] of 362 nM. Still for that read-out and setting: the same measure for `CC(=C(CC(=O)O)C(=O)Nc1ccc(-c2ccccc2S(N)(=O)=O)cc1)c1cccc(C(=N)N)c1`: 234 nM.

As for `CC(=C(F)C(=O)Nc1ccc(-c2ccccc2S(N)(=O)=O)cc1Cl)c1ccc(F)c(C(=N)N)c1`, the affinity on Coagulation factor X [4], expressed as Ki, was 0.18 nM. This molecule also came in with an IC50 at Coagulation factor X [1] of 0.74 nM. In turn, `C/C(=C(\F)C(=O)Nc1ccc(-c2ccccc2S(N)(=O)=O)cc1F)c1cc(C(=N)N)ccc1[N+](=O)[O-]` returned an IC50 against Coagulation factor X [1] of 15 nM. In the case of `COc1ccc(C=CC(=O)Nc2ccc(-c3ccccc3S(N)(=O)=O)cc2)cc1C(=N)N`, the midpoint of inhibition at Coagulation factor X [1], the IC50, lay at 6470 nM. `CN(C)CC(=C(F)C(=O)Nc1ccc(-c2ccccc2S(N)(=O)=O)cc1F)c1cccc(C(=N)N)c1` registered an IC50 on Coagulation factor X [1] of 191 nM.

On to `COc1ccc(C(=N)N)cc1C=CC(=O)Nc1ccc(-c2ccccc2S(N)(=O)=O)cc1`, for which the IC50 at Coagulation factor X [1] stood at 215 nM. `CC(=C(F)C(=O)Nc1ccc(-c2ccccc2S(N)(=O)=O)cc1)c1ccc(F)c(C(=N)N)c1` gave an IC50 against Coagulation factor X [1] of 3.6 nM. `N=C(N)c1cc(C=CC(=O)Nc2ccc(-c3ccccc3S(N)(=O)=O)cc2)ccc1F`: half-maximal inhibition against Coagulation factor X [1] (IC50) required 99 nM. In turn, `N=C(N)c1ccc(F)c(C=CC(=O)Nc2ccc(-c3ccccc3S(N)(=O)=O)cc2)c1` gave an IC50 against Coagulation factor X [1] of 18 nM. In the case of `N=C(N)c1cccc(C(=CC(=O)Nc2ccc(-c3ccccc3S(N)(=O)=O)cc2)C(F)(F)F)c1`, the IC50 against Coagulation factor X [1] turned out to be 10 nM. On to `N=C(N)c1cccc(C=CC(=O)Nc2ccc(-c3ccccc3S(N)(=O)=O)cc2)c1` [listing 2 of 2 here], for which the IC50 at Coagulation factor X [1] is 17 nM. `CC(=C(F)C(=O)Nc1ccc(-c2ccccc2S(N)(=O)=O)cc1Cl)c1cccc(C(=N)N)c1`: the IC50 against Serine protease 1 was found to be 188 nM; at Prothrombin it was 650 nM; against Coagulation factor X [1] it was 0.5 nM. For `CC(C)C(=CC(=O)Nc1ccc(-c2ccccc2S(N)(=O)=O)cc1)c1cccc(C(=N)N)c1`, the IC50 at Coagulation factor X [1] is 35 nM. Regarding `CC(=C(F)C(=O)Nc1ccc(-c2ccccc2S(N)(=O)=O)cc1Br)c1cccc(C(=N)N)c1`, the IC50 against Serine protease 1 was 189 nM; against Prothrombin, 503 nM; on Coagulation factor X [1] it was 0.5 nM.

The molecule `CCSCC(=C(F)C(=O)Nc1ccc(-c2ccccc2S(N)(=O)=O)cc1)c1cccc(C(=N)N)c1` came in with an IC50 against Coagulation factor X [1] of 13 nM. `N=C(N)c1cccc(C=C(C(=O)Nc2ccc(-c3ccccc3S(N)(=O)=O)cc2)c2ccccn2)c1` returned an IC50 against Coagulation factor X [1] of 664 nM. `N=C(N)c1cccc(C(=CC(=O)Nc2ccc(-c3ccccc3S(N)(=O)=O)cc2)Cn2cnnn2)c1`: 53 nM corresponded to half-maximal inhibition against Coagulation factor X [1] (IC50).

In turn, `CCC(=CC(=O)Nc1ccc(-c2ccccc2S(N)(=O)=O)cc1)c1cccc(C(=N)N)c1` had an IC50 against Coagulation factor X [1] of 7 nM. In the case of `CC(=C(F)C(=O)Nc1ccc(-c2ccccc2S(N)(=O)=O)cc1F)c1ccc(F)c(C(=N)N)c1`, the IC50 against Coagulation factor X [1] was 1.5 nM. At Coagulation factor X [1], `N=C(N)c1cccc(/C(=C\C(=O)Nc2ccc(-c3ccccc3S(N)(=O)=O)cc2)c2ccco2)c1` returned an IC50 of 184 nM. For the molecule `COCCOc1ccc(C(=N)N)cc1C=CC(=O)Nc1ccc(-c2ccccc2S(N)(=O)=O)cc1`, it took 9 nM to reach half-maximal inhibition against Coagulation factor X [1] (IC50). Molecule `CC(C)CC(=CC(=O)Nc1ccc(-c2ccccc2S(N)(=O)=O)cc1)c1cccc(C(=N)N)c1` returned an IC50 at Coagulation factor X [1] of 5 nM. For `N=C(N)c1cccc(C=C(C(=O)Nc2ccc(-c3ccccc3S(N)(=O)=O)cc2)c2ccncc2)c1`, the IC50 at Coagulation factor X [1] came to 628 nM.

Take `CC(=C(F)C(=O)Nc1ccc(-c2ccccc2S(N)(=O)=O)cc1Br)c1ccc(F)c(C(=N)N)c1`: the IC50 against Coagulation factor X [1] stood at 0.75 nM.

Molecule `N=C(N)c1cccc(C(=C(F)C(=O)Nc2ccc(-c3ccccc3S(N)(=O)=O)cc2)C(F)(F)F)c1` yielded an IC50 at Coagulation factor X [1] of 3 nM. Consider `N=C(N)c1cccc(C(=CC(=O)Nc2ccc(-c3ccccc3S(N)(=O)=O)cc2)Cn2ncnn2)c1`, for which, at Coagulation factor X [1], the IC50 amounted to 245 nM.

Turning to `N=C(N)c1cccc(C(=CC(=O)Nc2ccc(-c3ccccc3S(N)(=O)=O)cc2)Cc2cc[nH]n2)c1`, on Coagulation factor X [1], it took 48 nM to reach half-maximal inhibition (IC50).
